Patent publication US12134721B2, “Complexes and ligands” (The General Hospital Corporation, priority 2018, dated 2024)

Legend:
Type in all cases: physicochemical
[1] = Fluorescence lifetimes of selected lanthanide (Tb, Eu, Dy, Sm) complexes; conditions: Table 1
Protocol: (§1) Photophysical measurements: UV/visible and emission spectra were recorded on a Horiba Scientific Dual FL spectrophotometer. Ligands loaded with terbium were diluted into 1×PBS (pH 7.4) to a concentration of 20 uM (for absorbance) or 4 uM (for emission). For emission spectra, the data were normalized to the highest fluorescence signal. The fluorescence lifetime was determined by plotting the ln of the signal decay over time then solving for r in Equation 1:
(§2) [formula] where It is the intensity at time t, α is a normalization term (the preexponential factor) and τ is the lifetime.

[2] = Photophysical measurements of terbium complexes in 1x PBS pH 7.4; conditions: for τPBS (fluorescence lifetime): 1x PBS pH 7.4; for Emission λmax: 1x PBS pH 7.4, 4 uM; for εmax / λmax, Abs: 1x PBS pH 7.4, 20 uM
Protocol: as §1, §2

[3] = Fluorescence lifetimes of selected lanthanide (Tb, Eu, Dy, Sm) complexes
[4] = Stability of Tb complexes (10 nM) in various buffers over 7 days; conditions: buffers with 0.05% TWEEN-20
Protocol: The stability of NCP190-Tb (10 nM) was measured over the course of 7 days in various different buffers. All buffers contained 0.05% TWEEN-20 detergent.
The stability of NCP134-Tb (10 nM) was measured over the course of 7 days in various different buffers. All buffers contained 0.05% TWEEN-20 detergent.

[5] = Dy and Sm complexes of NCP189, Table 3

For `O=C(O)CN1CCN2CCNC(=O)c3cccc(c3O)C(=O)NCCN(CCNC(=O)c3cccc(c3O)C1=O)CCN1CCNC(=O)c3cccc(c3O)C(=O)NCCN(CCNC(=O)c3cccc(c3O)C(=O)NCC1)CC2` [NCP 144-Tb], the “Life Time” value [1] was 2.06 ms, the “τPBS (fluorescence lifetime)” value [2] was 2.06 ms and the “Emission λmax” value [2] was 545 nm. The εmax [2] was 19,230 M^−1cm^−1 and the “λmax, Abs” value [2] was 340 nm.
For `O=C(O)CCCCCN1CCN2CCNC(=O)c3cccc(c3O)C(=O)NCCN(CCNC(=O)c3cccc(c3O)C1=O)CCN1CCNC(=O)c3cccc(c3O)C(=O)NCCN(CCNC(=O)c3cccc(c3O)C(=O)NCC1)CC2` [NCP 189-Sm], the “Life Time” value [3, 5] was 28.1 ms.
In the case of `O=C1NCCN2CCNC(=O)c3cccc(c3O)C(=O)NCCN(CCNC(=O)c3cccc1c3O)C(=O)N1CCNC(=O)c3cccc(c3O)C(=O)NCCN(CCNC(=O)c3cccc(c3O)C(=O)NCC1)CC2` [NCP 275-Eu], the “Life Time” value ([3]; Eu complexes, Table 2) is reported as 505 ms.
With `O=C(CN1CCN2CCNC(=O)c3cccc(c3O)C(=O)NCCN(CCNC(=O)c3cccc(c3O)C1=O)CCN1CCNC(=O)c3cccc(c3O)C(=O)NCCN(CCNC(=O)c3cccc(c3O)C(=O)NCC1)CC2)NCCOCCOCCCCCCCl` [NCP 166-Tb] the “Life Time” value [1] was 2.23 ms.
For `O=C(O)CCCCCN1CCN2CCNC(=O)c3cccc(c3O)C(=O)NCCN(CCNC(=O)c3cccc(c3O)C1=O)CCN1CCNC(=O)c3cccc(c3O)C(=O)NCCN(CCNC(=O)c3cccc(c3O)C(=O)NCC1)CC2` [NCP 189-Eu], the Life Time ([3]; Eu complexes, Table 2) was 598 µs.
With `Nc1nc(CCc2ccc(CNC(=O)CN3CCN4CCNC(=O)c5cccc(c5O)C(=O)NCCN(CCNC(=O)c5cccc(c5O)C3=O)CCN3CCNC(=O)c5cccc(c5O)C(=O)NCCN(CCNC(=O)c5cccc(c5O)C(=O)NCC3)CC4)cc2)c2[nH]cnc2n1` [NCP 169-Tb] the “Life Time” value [1] was 1.99 ms.
With `Nc1nc(CCc2ccc(CNC(=O)CCCCCN3CCN4CCNC(=O)c5cccc(c5O)C(=O)NCCN(CCNC(=O)c5cccc(c5O)C3=O)CCN3CCNC(=O)c5cccc(c5O)C(=O)NCCN(CCNC(=O)c5cccc(c5O)C(=O)NCC3)CC4)cc2)c2nc[nH]c2n1` [NCP 191-Tb] the “Life Time” value [1] was 2.11 ms.
For `O=C1NCCN2CCNC(=O)c3cccc(c3O)C(=O)NCCN(CCNC(=O)c3cccc1c3O)CCN1CCNC(=O)c3cccc(c3O)C(=O)NCCN(CCNC(=O)c3cccc(c3O)C(=O)NCC1)CC2` [NCP 134-Tb], the “Stability in various buffers” value [4] was “only significantly destabilized by EDTA, however to a greater extent relative to NCP190-Tb”, the “Life Time” value [1] was 2.56 ms and the “τPBS (fluorescence lifetime)” value [2] was 2.10 ms. The “Emission λmax” value [2] was 545 nm, the εmax [2] was 11,600 M^−1cm^−1 and the “λmax, Abs” value [2] was 340 nm.
In the case of `O=C1NCCN2CCNC(=O)c3cc(Br)cc(c3O)C(=O)NCCN(CCNC(=O)c3cc(Br)cc1c3O)CCN1CCNC(=O)c3cc(Br)cc(c3O)C(=O)NCCN(CCNC(=O)c3cc(Br)cc(c3O)C(=O)NCC1)CC2` [NCP 158-Tb], the “Life Time” value [1] is reported as 0.97 ms, the “τPBS (fluorescence lifetime)” value [2] is reported as 0.97 ms and the “Emission λmax” value [2] is reported as 545 nm. For the same compound, the εmax [2] was 13,750 M^−1cm^−1 and the “λmax, Abs” value [2] was 355 nm.
In the case of “BH(2,2)IAM-N-carboxymethyl-Halotag [NCP166]”, the “τPBS (fluorescence lifetime)” value [2] is reported as 2.23 ms, the “Emission λmax” value [2] is reported as 545 nm and the εmax [2] is reported as 10,800 M^−1cm^−1. The “λmax, Abs” value [2] was 340 nm.
For `O=C1NCCN2CCNC(=O)c3cccc(c3O)C(=O)NCCN(CCNC(=O)c3cccc1c3O)C(=O)N1CCNC(=O)c3cccc(c3O)C(=O)NCCN(CCNC(=O)c3cccc(c3O)C(=O)NCC1)CC2` [NCP 275-Tb], the “Life Time” value [1] was 1.39 ms.
With `O=C(O)CCCCCN1CCN2CCNC(=O)c3cccc(c3O)C(=O)NCCN(CCNC(=O)c3cccc(c3O)C1=O)CCN1CCNC(=O)c3cccc(c3O)C(=O)NCCN(CCNC(=O)c3cccc(c3O)C(=O)NCC1)CC2` [NCP 189-Dy] the “Life Time” value [3, 5] was 22.7 ms.
For `O=C1NCCN2CCNC(=O)c3cccc(c3O)C(=O)NCCN(CCNC(=O)c3cccc1c3O)CC(=O)N1CCNC(=O)c3cccc(c3O)C(=O)NCCN(CCNC(=O)c3cccc(c3O)C(=O)NCC1)CC2` [NCP 272-Tb], the “Life Time” value [1] was 1.53 ms.
Compound `O=C(O)CCCCCN1CCN2CCNC(=O)c3cccc(c3O)C(=O)NCCN(CCNC(=O)c3cccc(n3)C1=O)CCN1CCNC(=O)c3cccc(c3O)C(=O)NCCN(CCNC(=O)c3cccc(c3O)C(=O)NCC1)CC2` [NCP 227-Eu] has a Life Time ([3]; Eu complexes, Table 2) of 651 µs.
With `O=C(O)CCCCCN1CCN2CCNC(=O)c3cccc(c3O)C(=O)NCCN(CCNC(=O)c3cccc(n3)C1=O)CCN1CCNC(=O)c3cccc(c3O)C(=O)NCCN(CCNC(=O)c3cccc(c3O)C(=O)NCC1)CC2` [NCP 227-Tb] the “Life Time” value [1] was 1.20 ms.
In the case of `O=C(CCCCCN1CCN2CCNC(=O)c3cccc(c3O)C(=O)NCCN(CCNC(=O)c3cccc(c3O)C1=O)CCN1CCNC(=O)c3cccc(c3O)C(=O)NCCN(CCNC(=O)c3cccc(c3O)C(=O)NCC1)CC2)NCCOCCOCCCCCCCl` [NCP 190-Tb], the “Stability in various buffers” value [4] is reported as “only significantly destabilized by EDTA” and the “Life Time” value [1] is reported as 2.46 ms.
In the case of `O=C(O)CCCCCN1CCN2CCNC(=O)c3cccc(c3O)C(=O)NCCN(CCNC(=O)c3cccc(c3)C1=O)CCN1CCNC(=O)c3cccc(c3O)C(=O)NCCN(CCNC(=O)c3cccc(c3O)C(=O)NCC1)CC2` [NCP 259-Eu], the Life Time ([3]; Eu complexes, Table 2) is reported as 657 µs.
In the case of `O=C(O)CCCCCN1CCN2CCNC(=O)c3cccc(c3O)C(=O)NCCN(CCNC(=O)c3cccc(c3O)C1=O)CCN1CCNC(=O)c3cccc(c3O)C(=O)NCCN(CCNC(=O)c3cccc(c3O)C(=O)NCC1)CC2` [NCP 189-Tb], the “Life Time” value [1] is reported as 1.79 ms.
For `O=C1NCCN2CCNC(=O)c3cccc(c3O)C(=O)NCCN(CCNC(=O)c3cccc1c3O)CC(=O)N1CCNC(=O)c3cccc(c3O)C(=O)NCCN(CCNC(=O)c3cccc(c3O)C(=O)NCC1)CC2` [NCP 272-Eu], the Life Time ([3]; Eu complexes, Table 2) was 609 µs.
With `O=C(O)CCCCCN1CCN2CCNC(=O)c3cccc(c3O)C(=O)NCCN(CCNC(=O)c3cccc(c3)C1=O)CCN1CCNC(=O)c3cccc(c3O)C(=O)NCCN(CCNC(=O)c3cccc(c3O)C(=O)NCC1)CC2` [NCP 259-Tb] the “Life Time” value [1] was 1.37 ms.
